{"source": "patent US7662404B2", "about": "“Transdermal delivery system for dried particulate or lyophilized peptides and polypeptides” (TransPharma Medical Ltd., priority 2002, dated 2010)", "test": "Plasma hPTH (1-34) in female adult healthy human volunteers, ViaDerm and printed patches or SC (Example 13)", "format": "in vivo", "parameters": "AUC (individual subjects): unit not given here", "conditions": "for Cmax (individual subjects): women; for Cmax (individual subjects) / AUC (individual subjects) / AUC: 12 h; for AUC / Tmax / Cmax: female, human, plasma", "method": "Transdermal drug delivery study of hPTH (1-34) in four female adult healthy human volunteers was performed using ViaDerm and printed patches.\nTo evaluate the transdermal delivery of hPTH (1-34), printed patches containing 100 μg or 200 μg hPTH (1-34) (FORTEO®, Teriparatide purchased from Ely Lilly, Indianapolis, Ind., USA) were prepared. Patch area was 1.44 cm^2.\nViaDerm parameters: electrode array of 75 or 100 micro-channels/cm^2; ViaDerm was applied two or three times generating micro-channels at a density of 150 or 300 micro-channels/cm^2; Voltage: 290 volts, constant voltage; Burst length: 5000 μsec; Maximal current: 50 mA.\nEach female adult received five treatments of hPTH (1-34) with a minimum of 2 day clearance between treatments. The treatments were as follows: • 1. Three ViaDerm applications (final density of 300 micro-channels/cm^2) on one site of the upper arm. Two printed patches, each containing 100 μg hPTH (1-34), were placed over the application area (each for 6 hours). • 2. Two ViaDerm applications (final density of 150 micro-channels/cm^2) on one site of the upper arm. Two printed patches, each containing 200 μg hPTH (1-34), were placed over the application area. • 3. Three ViaDerm applications (final density of 300 micro-channels/cm^2) on one site of the upper arm. Two printed patches, each containing 200 μg hPTH (1-34), were placed over the application area. • 4. Subcutaneous (SC) injection of 20 μg hPTH (1-34) (FORTEO®, Teriparatide was purchased from Ely Lilly, Indianapolis, Ind., USA). • 5. SC injection of 60 μg hPTH (1-34) (FORTEO®).\nPlasma hPTH (1-34), calcium ions and phosphate ions were determined by Eliza using commercial kits.", "note": "Where “and” joins values, the source holds several entries; their conditions need not be identical. Equal values may be shown once. Read-outs that look alike come from different tables or passages of the source.", "data": [{"smiles": "CC[C@H](C)[C@H](NC(=O)[C@H](CCC(=O)O)NC(=O)[C@H](CO)NC(=O)[C@@H](NC(=O)[C@@H](N)CO)C(C)C)C(=O)N[C@@H](CCC(N)=O)C(=O)N[C@@H](CC(C)C)C(=O)N[C@@H](CCSC)C(=O)N[C@@H](Cc1cnc[nH]1)C(=O)N[C@@H](CC(N)=O)C(=O)N[C@@H](CC(C)C)C(=O)NCC(=O)N[C@@H](CCCCN)C(=O)N[C@@H](Cc1cnc[nH]1)C(=O)N[C@@H](CC(C)C)C(=O)N[C@@H](CC(N)=O)C(=O)N[C@@H](CO)C(=O)N[C@@H](CCSC)C(=O)N[C@@H](CCC(=O)O)C(=O)N[C@@H](CCCN=C(N)N)C(=O)N[C@H](C(=O)N[C@@H](CCC(=O)O)C(=O)N[C@@H](Cc1c[nH]c2ccccc12)C(=O)N[C@@H](CC(C)C)C(=O)N[C@@H](CCCN=C(N)N)C(=O)N[C@@H](CCCCN)C(=O)N[C@@H](CCCCN)C(=O)N[C@@H](CC(C)C)C(=O)N[C@@H](CCC(N)=O)C(=O)N[C@@H](CC(=O)O)C(=O)N[C@H](C(=O)N[C@@H](Cc1cnc[nH]1)C(=O)N[C@@H](CC(N)=O)C(=O)N[C@@H](Cc1ccccc1)C(=O)O)C(C)C)C(C)C", "note": "[hPTH (1-34)]", "values": [{"measurement": "Cmax (individual subjects)", "setting": "T-1: 300 micro-channels/cm^2, 2 printed patches each 100 μg (dose 200 ug)", "value": "0.094366 ng/mL and 0.394054 ng/mL and 0.437693 ng/mL and 0.39756 ng/mL"}, {"measurement": "AUC (individual subjects)", "setting": "T-1: 300 micro-channels/cm^2, 2 printed patches each 100 μg", "value": "346 and 1340 and 1097 and 1067"}, {"measurement": "Cmax AVG", "setting": "T-1: 300 micro-channels/cm^2, 2 printed patches each 100 μg, mean of 4 women", "value": 0.330918, "unit": "ng/mL"}, {"measurement": "Cmax (individual subjects)", "setting": "T-2: 150 micro-channels/cm^2, 2 printed patches each 200 μg (dose 400 ug)", "value": "0.072528 ng/mL and 0.463893 ng/mL and 1.293464 ng/mL and 0.739311 ng/mL"}, {"measurement": "AUC (individual subjects)", "setting": "T-2: 150 micro-channels/cm^2, 2 printed patches each 200 μg", "value": "398 and 1498 and 3743 and 2128"}, {"measurement": "Cmax AVG", "setting": "T-2: 150 micro-channels/cm^2, 2 printed patches each 200 μg, mean of 4 women", "value": 0.642299, "unit": "ng/mL"}, {"measurement": "Cmax (individual subjects)", "setting": "T-3: 300 micro-channels/cm^2, 2 printed patches each 200 μg (dose 400 ug)", "value": "0.296887 ng/mL and 0.534872 ng/mL and 1.304179 ng/mL and 0.46945 ng/mL"}, {"measurement": "AUC (individual subjects)", "setting": "T-3: 300 micro-channels/cm^2, 2 printed patches each 200 μg", "value": "886 and 1251 and 4649 and 1327"}, {"measurement": "Cmax AVG", "setting": "T-3: 300 micro-channels/cm^2, 2 printed patches each 200 μg, mean of 4 women", "value": 0.651347, "unit": "ng/mL"}, {"measurement": "Tmax (individual subjects)", "setting": "T-4: SC injection of 20 μg", "value": "6.0 h and 0.3 h and 0.5 h"}, {"measurement": "AUC (individual subjects)", "setting": "T-4: SC injection of 20 μg", "value": "172 and 158 and 176"}, {"measurement": "Cmax AVG", "setting": "T-4: SC injection of 20 μg, mean of 4 women", "value": 0.029291, "unit": "ng/mL"}, {"measurement": "Cmax (individual subjects)", "setting": "T-4: SC injection of 20 μg", "value": "0.012196 ng/mL and 0.037556 ng/mL and 0.02935 ng/mL and 0.038062 ng/mL"}, {"measurement": "Tmax (individual subjects)", "setting": "T-5: SC injection of 60 μg", "value": 0.5, "unit": "h"}, {"measurement": "AUC (individual subjects)", "setting": "T-5: SC injection of 60 μg", "value": "84 and 100 and 474 and 399"}, {"measurement": "Cmax AVG", "setting": "T-5: SC injection of 60 μg, mean of 4 women", "value": 0.111514, "unit": "ng/mL"}, {"measurement": "Cmax (individual subjects)", "setting": "T-5: SC injection of 60 μg", "value": "0.059209 ng/mL and 0.066482 ng/mL and 0.185324 ng/mL and 0.13504 ng/mL"}, {"measurement": "AUC", "setting": "100 ug, T-1: 300 micro-channels/cm^2, 2 printed patches each 100 μg, mean of 4 women, read-out: AUC AVG", "value": 0.963, "unit": "ng·h/mL"}, {"measurement": "Tmax", "setting": "100 ug, T-1: 300 micro-channels/cm^2, 2 printed patches each 100 μg, read-out: Tmax (individual subjects)", "value": 1, "unit": "h"}, {"measurement": "Cmax", "setting": "other: transdermal printed patch on ViaDerm-treated skin, 100 ug, T-1: 300 micro-channels/cm^2, 2 printed patches each 100 μg, mean of 4 women", "value": 0.331, "unit": "ng/mL"}, {"measurement": "Tmax", "setting": "other: transdermal printed patch on ViaDerm-treated skin, 100 ug, T-1: 300 micro-channels/cm^2, 2 printed patches each 100 μg, mean of 4 women, read-out: Tmax AVG", "value": 1.5, "unit": "h"}, {"measurement": "AUC", "setting": "other: transdermal printed patch on ViaDerm-treated skin, 200 ug, T-2: 150 micro-channels/cm^2, 2 printed patches each 200 μg, mean of 4 women, read-out: AUC AVG", "value": 1.94, "unit": "ng·h/mL"}, {"measurement": "Cmax", "setting": "other: transdermal printed patch on ViaDerm-treated skin, 200 ug, T-2: 150 micro-channels/cm^2, 2 printed patches each 200 μg, mean of 4 women", "value": 0.642, "unit": "ng/mL"}, {"measurement": "Tmax", "setting": "other: transdermal printed patch on ViaDerm-treated skin, 200 ug, T-2: 150 micro-channels/cm^2, 2 printed patches each 200 μg, mean of 4 women, read-out: Tmax AVG", "value": 2.1, "unit": "h"}, {"measurement": "Tmax", "setting": "other: transdermal printed patch on ViaDerm-treated skin, 200 ug, T-2: 150 micro-channels/cm^2, 2 printed patches each 200 μg, read-out: Tmax (individual subjects)", "value": 1.5, "unit": "h"}, {"measurement": "AUC", "setting": "other: transdermal printed patch on ViaDerm-treated skin, 200 ug, T-3: 300 micro-channels/cm^2, 2 printed patches each 200 μg, mean of 4 women, read-out: AUC AVG", "value": 2.03, "unit": "ng·h/mL"}, {"measurement": "Cmax", "setting": "other: transdermal printed patch on ViaDerm-treated skin, 200 ug, T-3: 300 micro-channels/cm^2, 2 printed patches each 200 μg, mean of 4 women", "value": 0.651, "unit": "ng/mL"}, {"measurement": "Tmax", "setting": "other: transdermal printed patch on ViaDerm-treated skin, 200 ug, T-3: 300 micro-channels/cm^2, 2 printed patches each 200 μg, mean of 4 women, read-out: Tmax AVG", "value": 2, "unit": "h"}, {"measurement": "Tmax", "setting": "other: transdermal printed patch on ViaDerm-treated skin, 200 ug, T-3: 300 micro-channels/cm^2, 2 printed patches each 200 μg, read-out: Tmax (individual subjects)", "value": 2.5, "unit": "h"}, {"measurement": "AUC", "setting": "sc, 20 ug, T-4: SC injection of 20 μg, mean of 4 women, read-out: AUC AVG", "value": 0.152, "unit": "ng·h/mL"}, {"measurement": "AUC", "setting": "sc, 20 ug, T-4: SC injection of 20 μg, read-out: AUC (individual subjects)", "value": 0.103, "unit": "ng·h/mL"}, {"measurement": "Cmax", "setting": "sc, 20 ug, T-4: SC injection of 20 μg, mean of 4 women", "value": 0.022, "unit": "ng/mL"}, {"measurement": "Tmax", "setting": "sc, 20 ug, T-4: SC injection of 20 μg, mean of 4 women, read-out: Tmax AVG", "value": 1.8, "unit": "h"}, {"measurement": "AUC", "setting": "sc, 60 ug, T-5: SC injection of 60 μg, mean of 4 women, read-out: AUC AVG", "value": 0.264, "unit": "ng·h/mL"}, {"measurement": "Cmax", "setting": "sc, 60 ug, T-5: SC injection of 60 μg, mean of 4 women", "value": 0.115, "unit": "ng/mL"}, {"measurement": "Tmax", "setting": "sc, 60 ug, T-5: SC injection of 60 μg, mean of 4 women, read-out: Tmax AVG", "value": 0.8, "unit": "h"}, {"measurement": "Tmax", "setting": "sc, 60 ug, T-5: SC injection of 60 μg, read-out: Tmax (individual subjects)", "value": 1, "unit": "h"}]}]}
